From US8409560B2, “Solid dispersion formulations and methods of use thereof” (Zalicus Pharmaceuticals Ltd., priority 2011, dated 2013)
Converted amounts (≈) assume the structure as drawn. Read-outs that look alike come from different tables or passages of the source.

Key:
[1] = Hygroscopicity of compound 1 free base (previously determined); type: physicochemical; settings: at 70% relative humidity (RH)
From the text: Compound 1 has the following previously determined characteristics:
(vii) hygroscopicity (for free base): 0.09% at 70% relative humidity (RH);

[2] = Fed-fasted pharmacokinetics and relative oral bioavailability of compound 1 HCl salt, micronized formulation (previously determined); settings: human, in vivo
From the text: The fed-fasted pharmacokinetic data were collected using a “normal fat” meal consisting of toast with 1 pat of butter, a banana, 2% milk, apple juice, and Honey Nut Cheerios®, where the meal has about 501 calories with 99 calories from fat, 346 calories from carbohydrates, and 56 calories from protein; and using a “high fat” meal consisting of 2 eggs fried in butter, 2 strips of bacon, 2 slices of toast with butter, 4 ounces of hash brown potatoes and 8 ounces of whole milk, where the meal has about 1,000 calories with 500-600 calories from fat, 250 calories from carbohydrates, and 150 calories from protein.
The relative oral bioavailability of compound 1 (HCl salt) has been previously determined in various fed and fasted states in a micronized formulation. This micronized formulation included the following for a 100 mg dose in a #1 HPMC (white opaque) capsule: compound 1 HCl micronized (100.00 mg), Lactose Fast Flo® Fast Flo® composed of a spray-dried mixture of crystalline and amorphous lactose monohydrate (184.80 mg); sodium starch glycolate (19.20 mg); polysorbate 80 (14.40 mg); purified water (used as the granulating fluid and was removed during processing) (QS); and magnesium stearate (1.60 mg), where the resultant fill weight was 320.00 mg. […]

[3] = Caco-2 apparent intestinal permeability; type: in vitro ADME; settings: for recovery at 60 min, 1 μM: read-out: Percent Recovery
From the text: (§1) Absorption of particular drugs may be limited by biological factors, such as reduced cellular permeability in the intestine. Many cellular mechanisms can influence permeability, such as reduced passive paracellular and transcellular transport or increased active export by the efflux transporter protein P-glycoprotein. Thus, the use of self-emulsifying carriers may not be beneficial for drugs having limited cellular permeability, where methods to increase the solubilization of a drug may not increase its permeability in the gastrointestinal tract. Experiments were conducted to assess the apparent intestinal permeability of compound 1 using a Caco-2 cell model.
(§2) Briefly, Caco-2 cells were used as an in vitro model for predicting absorption through the intestinal epithelium. Confluent monolayers of Caco-2 cells were grown on collagen-coated, microporous, polycarbonate membranes (12-well Costar Transwell® plates) that are placed between two chambers. The apical side of the monolayer was exposed to the buffer solution in a first chamber, but the basolateral side of the monolayer adhered to microporous membranes fluidically connected to a second chamber. The dosing solution was added to the first chamber for measurements in the apical-to-basolateral direction (A-to-B) and to the second chamber for measurements in the basolateral-to-apical direction (B-to-A). […] The permeability assay buffer was Hanks Balanced Salt Solution containing 10 mM HEPES and 15 mM glucose at a pH of 7.4. The buffer in the receiver chamber also contained 1% bovine serum albumin. The dosing solution concentration was 1 μM of compound 1 in the assay buffer. All donor chambers were first pre-incubated for five minutes with dosing solution to attempt to saturate any non-specific binding sites on the device with test compound. After five minutes, the solution was removed and replaced with fresh dosing solution, and time was recorded as 0. Cell monolayers were dosed on the apical side/first chamber (for A-to-B measurements) or basolateral side/second chamber (for B-to-A measurements) and incubated at 37° C. with 5% CO2 in a humidified incubator. At 30 and 60 minutes, aliquots were taken from the receiver chambers and replaced with fresh assay buffer. Samples were taken from the donor chamber at 0 and 60 minutes. Each experiment was performed in triplicate.
(§3) The apparent permeability (Papp), percent recovery, and efflux ratio were calculated as follows:
(§4) [formula] [formula] where
(§5) [formula] is the slope of the cumulative concentration in the receiver chamber as a function of time; Vr [cm^3] is the volume of the receiver chamber; Vd [cm^3] is the volume of the donor chamber; A [cm^2] is the area of the cell monolayer, which is estimated to be about 1.13 cm^2 for the 12-well Costar Transwell® plates; C0 [μM] is the measured concentration in the donor chamber at t=0 hours; CN [μM] is the nominal concentration of the dosing solution; Cr final [μM] is the cumulative concentration in the receiver chamber at the end of the incubation period; and Cd final [μM] is the cumulative concentration in the donor chamber at the end of the incubation period.
(§6) Thus, absorption of compound 1 in humans is not expected to be permeability limited.

Caco-2 cells = assay: Caco-2 apparent intestinal permeability; type: in vitro ADME; settings: for Papp, replicates R1-R3: 1 μM
From the text: as §1, §2, §3, §4, §5, §6

[4] = Adverse effects at doses of up to 1,600 mg; type: in vivo
From the text: Yet, compound 1 is also known to have decreased oral bioavailability in the fasted state, as compared to the fed state. Accordingly, the invention provides formulations to increase the oral bioavailability or to reduce patient-to-patient variability in pharmacokinetic behavior of compound 1, compound 2, or a salt thereof. Generally, amorphous forms of a drug are more readily absorbed within the gastric and intestinal system and, thus, have increased bioavailability, as compared to crystalline forms of the drug. These formulations include use of a solid dispersion system to provide a matrix polymer capable of maintaining therapeutically effective amounts of compound 1, compound 2, or a salt thereof, in an amorphous form.

[5] = Solubility of compound 1 (previously determined); type: physicochemical
From the text: Compound 1 has the following previously determined characteristics: […]

hygroscopicity [1]: 0.09%
Tmax [2]: < 2 h
recovery at 60 min, 1 μM ([3]; Caco-2, pH 7.4, Cell-free): 54%
Papp A→B at 60 min, 1 μM ([3]; human, Caco-2, pH 7.4, A-to-B, read-out: Papp Avg.): 5.15 ×10⁻⁶ cm/s
Papp A→B at 60 min, 1 μM ([3]; human, Caco-2, pH 7.4, A-to-B, read-out: Papp, replicates R1-R3): 4.37 ×10⁻⁶ cm/s
recovery at 60 min, 1 μM ([3]; human, Caco-2, pH 7.4, A-to-B): 28%
Papp B→A at 60 min, 1 μM ([3]; human, Caco-2, pH 7.4, B-to-A, read-out: Papp Avg.): 4.32 ×10⁻⁶ cm/s
Papp B→A at 60 min, 1 μM ([3]; human, Caco-2, pH 7.4, B-to-A, read-out: Papp, replicates R1-R3): 5.04 ×10⁻⁶ cm/s
recovery at 60 min, 1 μM ([3]; human, Caco-2, pH 7.4, B-to-A): 37%
efflux ratio at 60 min, 1 μM ([3]; human, Caco-2, pH 7.4, read-out: Efflux Ratio (Papp(B-to-A)/Papp(A-to-B))): 0.8
Papp, replicates R1-R3 (Caco-2 cells; A-to-B): 4.31 10^−6 cm/s
Papp, replicates R1-R3 (Caco-2 cells; B-to-A): 3.48 10^−6 cm/s
permeability classification (Caco-2 cells; Papp(A-to-B) more than 1.0×10^−6 cm/s): high permeability coefficient
efflux significance (Caco-2 cells; efflux ratio of less than 3): not considered significant
solubility in propylene glycol, ethanol, and tetrahydrofuran (in words) [5]: soluble
solubility ([5]; acetone, organic solvent or mixture, read-out: solubility in acetone): ≤ 50000 µg/mL
solubility ([5]; pH 6.5, pH of 6.5 in FaSSIF, read-out: solubility): 1.5 µg/mL (≈ 3.26 µM)
solubility in water (in words) ([5]; water): slightly soluble
solubility ([5]; water, pH 1, simulated gastric fluid, pH of 1.0, read-out: solubility in water): 55 µg/mL (≈ 119 µM)
solubility ([5]; water, pH 6.5, aqueous buffer, pH of 6.5, read-out: solubility in water): 0.03 µg/mL (≈ 0.0651 µM)
solubility ([5]; water, pH 6.8, aqueous buffer, pH of 6.8, read-out: solubility in water): 0.2 to 2 µg/mL (≈ 0.434 to 4.34 µM)
SMILES: O=C(CC(c1ccccc1)c1ccccc1)N1CCN(C(c2ccccc2)c2ccccc2)CC1 [Compound 1, 1-(4-benzhydrylpiperazin-1-yl)-3,3-diphenylpropan-1-one]
adverse effects [4]: no adverse effects
